From US10479784B2, “Substituted pyrazin-2-amines as inhibitors of ATR kinase” (Vertex Pharmaceuticals Incorporated, priority 2008, dated 2019)

These molecules were tested against full-length ATR (Homo sapiens (Human), UniProt Q13535) (assay: ATR Inhibition Assay (radioactive-phosphate incorporation)). Conditions: read-out: ATR Ki.
Type: biochemical
Method in brief: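 Ki(app) was derived by non-linear regression of background-corrected initial rates of 33P incorporation into an 800 μM target peptide, read by phosphocellulose filter scintillation counting. Reaction conditions: 5 nM full-length ATR, 10 μM [γ-33P]ATP, pH 7.5 Tris buffer with MgCl2 and DTT, 25 °C, 10-min preincubation, 24 h run.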

Chain of full-length ATR (Q13535 whole entry): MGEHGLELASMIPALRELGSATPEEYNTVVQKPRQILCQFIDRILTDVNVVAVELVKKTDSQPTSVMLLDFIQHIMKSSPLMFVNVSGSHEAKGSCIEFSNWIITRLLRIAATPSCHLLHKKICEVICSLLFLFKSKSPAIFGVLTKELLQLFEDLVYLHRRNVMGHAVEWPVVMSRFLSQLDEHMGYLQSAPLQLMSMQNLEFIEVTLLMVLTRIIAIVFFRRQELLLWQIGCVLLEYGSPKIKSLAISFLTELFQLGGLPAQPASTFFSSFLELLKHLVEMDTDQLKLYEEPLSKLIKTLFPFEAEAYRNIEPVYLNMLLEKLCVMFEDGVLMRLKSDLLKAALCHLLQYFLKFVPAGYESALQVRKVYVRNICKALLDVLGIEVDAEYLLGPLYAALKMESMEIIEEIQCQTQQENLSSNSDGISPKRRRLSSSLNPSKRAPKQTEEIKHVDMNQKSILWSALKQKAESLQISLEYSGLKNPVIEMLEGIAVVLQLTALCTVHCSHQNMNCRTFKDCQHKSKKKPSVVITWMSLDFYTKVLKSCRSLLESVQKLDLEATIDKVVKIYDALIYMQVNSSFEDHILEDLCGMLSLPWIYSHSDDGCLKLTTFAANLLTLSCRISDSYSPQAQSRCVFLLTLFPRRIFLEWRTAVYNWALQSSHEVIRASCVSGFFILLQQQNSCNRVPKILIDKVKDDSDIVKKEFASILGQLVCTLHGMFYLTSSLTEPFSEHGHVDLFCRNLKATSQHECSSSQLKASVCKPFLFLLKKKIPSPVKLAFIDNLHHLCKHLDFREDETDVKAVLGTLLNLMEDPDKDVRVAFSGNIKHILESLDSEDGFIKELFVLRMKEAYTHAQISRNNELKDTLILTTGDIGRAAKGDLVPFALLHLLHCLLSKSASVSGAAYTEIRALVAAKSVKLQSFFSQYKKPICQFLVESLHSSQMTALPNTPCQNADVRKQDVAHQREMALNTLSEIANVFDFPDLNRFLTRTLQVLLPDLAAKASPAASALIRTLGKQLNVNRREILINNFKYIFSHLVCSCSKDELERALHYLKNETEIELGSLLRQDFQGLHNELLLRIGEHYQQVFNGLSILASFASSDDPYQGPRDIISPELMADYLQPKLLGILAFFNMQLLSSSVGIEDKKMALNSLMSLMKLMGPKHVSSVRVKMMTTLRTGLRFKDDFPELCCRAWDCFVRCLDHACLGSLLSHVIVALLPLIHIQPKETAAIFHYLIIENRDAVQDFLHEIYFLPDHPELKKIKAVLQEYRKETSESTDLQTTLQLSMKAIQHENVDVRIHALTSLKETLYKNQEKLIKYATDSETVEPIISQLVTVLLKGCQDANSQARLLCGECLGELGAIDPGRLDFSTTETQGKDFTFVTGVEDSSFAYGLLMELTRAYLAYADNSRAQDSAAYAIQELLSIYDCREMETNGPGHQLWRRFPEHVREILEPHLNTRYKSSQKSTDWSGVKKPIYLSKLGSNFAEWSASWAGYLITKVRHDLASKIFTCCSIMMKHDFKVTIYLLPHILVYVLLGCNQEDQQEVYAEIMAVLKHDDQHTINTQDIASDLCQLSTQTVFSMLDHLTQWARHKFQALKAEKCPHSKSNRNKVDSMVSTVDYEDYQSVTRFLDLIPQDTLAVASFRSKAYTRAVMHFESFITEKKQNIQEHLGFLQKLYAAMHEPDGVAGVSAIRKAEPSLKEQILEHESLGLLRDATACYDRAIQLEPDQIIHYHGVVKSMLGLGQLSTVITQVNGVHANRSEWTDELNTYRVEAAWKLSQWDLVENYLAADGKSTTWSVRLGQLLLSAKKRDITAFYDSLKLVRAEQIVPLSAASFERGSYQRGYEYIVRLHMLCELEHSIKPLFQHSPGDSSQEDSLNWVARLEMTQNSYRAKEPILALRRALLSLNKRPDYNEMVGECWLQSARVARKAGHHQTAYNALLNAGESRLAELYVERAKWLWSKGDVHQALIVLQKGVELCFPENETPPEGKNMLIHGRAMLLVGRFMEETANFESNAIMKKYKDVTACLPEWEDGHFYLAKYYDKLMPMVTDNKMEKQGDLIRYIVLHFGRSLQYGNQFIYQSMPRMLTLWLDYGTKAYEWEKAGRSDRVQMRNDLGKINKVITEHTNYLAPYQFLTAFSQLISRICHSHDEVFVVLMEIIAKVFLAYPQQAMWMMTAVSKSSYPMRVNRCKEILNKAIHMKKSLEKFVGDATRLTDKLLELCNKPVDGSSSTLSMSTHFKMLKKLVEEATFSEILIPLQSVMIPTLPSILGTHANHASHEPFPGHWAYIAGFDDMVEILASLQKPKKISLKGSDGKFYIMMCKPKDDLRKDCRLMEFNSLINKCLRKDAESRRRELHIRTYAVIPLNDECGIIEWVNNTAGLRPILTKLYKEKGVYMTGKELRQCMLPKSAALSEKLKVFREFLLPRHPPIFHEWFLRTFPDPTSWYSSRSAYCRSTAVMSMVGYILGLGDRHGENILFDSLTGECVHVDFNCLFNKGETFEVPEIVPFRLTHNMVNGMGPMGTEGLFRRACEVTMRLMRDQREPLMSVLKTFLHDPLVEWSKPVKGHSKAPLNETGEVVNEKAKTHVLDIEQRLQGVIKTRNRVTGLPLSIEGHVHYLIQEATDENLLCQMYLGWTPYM

Ki	SMILES
≤ 10 nM	CC(C)S(=O)(=O)c1ccc(-c2cnc(N)c(-c3nnc(-c4ccc(O)cc4)o3)n2)cc1 [IA-193, 4-[5-[3-amino-6-(4-isopropylsulfonylphenyl)pyrazin-2-yl]-1,3,4-oxadiazol-2-yl]phenol]
100 to 5000 nM	C#Cc1ccccc1-c1cnc(N)c(-c2nnc(-c3ccccc3)o2)n1 [IA-194, 5-(2-ethynylphenyl)-3-(5-phenyl-1,3,4-oxadiazol-2-yl)pyrazin-2-amine]
10 to 100 nM	COc1cccc(-c2nnc(-c3nc(-c4ccc(C(=O)N(C)C)cc4)cnc3N)o2)c1 [IA-195, 4-[5-amino-6-[5-(3-methoxyphenyl)-1,3,4-oxadiazol-2-yl]pyrazin-2-yl]-N,N-dimethyl-benzamide]
≤ 10 nM	CN(C)C(=O)c1ccc(-c2cnc(N)c(-c3nnc(-c4ccccc4OCCO)o3)n2)cc1 [IA-196, 4-[5-amino-6-[5-[2-(2-hydroxyethoxy)phenyl]-1,3,4-oxadiazol-2-yl]pyrazin-2-yl]-N,N-dimethyl-benzamide]
≤ 10 nM	Nc1ncc(-c2ccc(S(=O)(=O)C3CCNCC3)cc2)nc1-c1nnc(-c2ccccc2)o1 [IA-197, 3-(5-phenyl-1,3,4-oxadiazol-2-yl)-5-[4-(4-piperidylsulfonyl)phenyl]pyrazin-2-amine]
10 to 100 nM	CN(C)C(=O)c1ccc(-c2cnc(N)c(-c3nnc(-c4cccc(CO)c4)o3)n2)cc1 [IA-198, 4-[5-amino-6-[5-[3-(hydroxymethyl)phenyl]-1,3,4-oxadiazol-2-yl]pyrazin-2-yl]-N,N-dimethyl-benzamide]
100 to 5000 nM	CC(C)S(=O)(=O)c1ccc(-c2cnc(N)c(-c3nnc(NC4CCCNC4)o3)n2)cc1 (stereo not shown) [IA-199, 5-[3-amino-6-(4-isopropylsulfonylphenyl)pyrazin-2-yl]-N-(3-piperidyl)-1,3,4-oxadiazol-2-amine]
100 to 5000 nM	CN1CCN(c2ccc(-c3cnc(N)c(-c4nnc(-c5ccccc5)o4)n3)cn2)CC1 [IA-200, 5-(6-(4-methylpiperazin-1-yl)pyridin-3-yl)-3-(5-phenyl-1,3,4-oxadiazol-2-yl)pyrazin-2-amine]
≤ 10 nM	CC(C)S(=O)(=O)c1ccc(-c2cnc(N)c(-c3nnc(-c4ccc(N)cc4)o3)n2)cc1 [IA-201, 3-[5-(4-aminophenyl)-1,3,4-oxadiazol-2-yl]-5-(4-isopropylsulfonylphenyl)pyrazin-2-amine]
100 to 5000 nM	Nc1ncc(-c2cccc(CO)c2)nc1-c1nnc(-c2ccccc2)o1 [IA-202, [3-[5-amino-6-(5-phenyl-1,3,4-oxadiazol-2-yl)pyrazin-2-yl]phenyl]methanol]
100 to 5000 nM	CCS(=O)(=O)c1ccccc1-c1cnc(N)c(-c2nnc(-c3ccccc3)o2)n1 [IA-203, 5-(2-ethylsulfonylphenyl)-3-(5-phenyl-1,3,4-oxadiazol-2-yl)pyrazin-2-amine]
10 to 100 nM	CC(C)S(=O)(=O)c1ccc(-c2cnc(N)c(-c3nnc(-c4cccc(CN(C)C)c4)o3)n2)cc1 [IA-204, 3-[5-[3-(dimethylaminomethyl)phenyl]-1,3,4-oxadiazol-2-yl]-5-(4-isopropylsulfonylphenyl)pyrazin-2-amine]
≤ 10 nM	CN(C)C(=O)c1ccc(-c2cnc(N)c(-c3nnc(-c4ccccc4I)o3)n2)cc1 [IA-205, 4-[5-amino-6-[5-(2-iodophenyl)-1,3,4-oxadiazol-2-yl]pyrazin-2-yl]-N,N-dimethyl-benzamide]
100 to 5000 nM	CC(C)S(=O)(=O)c1ccc(-c2cnc(N)c(-c3nnc(N4CCCC(N)C4)o3)n2)cc1 (stereo not shown) [IA-206, 3-[5-(3-amino-1-piperidyl)-1,3,4-oxadiazol-2-yl]-5-(4-isopropylsulfonylphenyl)pyrazin-2-amine]
100 to 5000 nM	Nc1ncc(-c2ccccc2-c2cnco2)nc1-c1nnc(-c2ccccc2)o1 [IA-207, 5-(2-oxazol-5-ylphenyl)-3-(5-phenyl-1,3,4-oxadiazol-2-yl)pyrazin-2-amine]
≤ 10 nM	CNC(=N)c1ccc(-c2nnc(-c3nc(-c4ccc(S(=O)(=O)C(C)C)cc4)cnc3N)o2)cc1 [IA-208, 4-[5-[3-amino-6-(4-isopropylsulfonylphenyl)pyrazin-2-yl]-1,3,4-oxadiazol-2-yl]-N-methyl-benzamidine]
10 to 100 nM	CN(C)CCNc1nccc(-c2cnc(N)c(-c3nnc(-c4ccccc4)o3)n2)c1C#N [IA-209, 4-[5-amino-6-(5-phenyl-1,3,4-oxadiazol-2-yl)pyrazin-2-yl]-2-(2-dimethylaminoethylamino)pyridine-3-carbonitrile]
10 to 100 nM	CCn1cc(-c2cnc(N)c(-c3nnc(-c4ccccc4)o3)n2)cn1 [IA-210, 5-(1-ethylpyrazol-4-yl)-3-(5-phenyl-1,3,4-oxadiazol-2-yl)pyrazin-2-amine]
100 to 5000 nM	CC(C)S(=O)(=O)c1ccc(-c2cnc(N)c(-c3nnc(NC(=O)[C@@H]4CCCCN4)o3)n2)cc1 [IA-211, (2S)—N-[5-[3-amino-6-(4-isopropylsulfonylphenyl)pyrazin-2-yl]-1,3,4-oxadiazol-2-yl]piperidine-2-carboxamide]
≤ 10 nM	CNC(C)c1ccc(-c2nnc(-c3nc(-c4ccc(S(=O)(=O)C(C)C)cc4)cnc3N)o2)cc1 (stereo not shown) [IA-212, 5-(4-isopropylsulfonylphenyl)-3-[5-[4-[1-(methylamino)ethyl]phenyl]-1,3,4-oxadiazol-2-yl]pyrazin-2-amine]
10 to 100 nM	CN(C)C(=O)c1ccc(-c2cnc(N)c(-c3nnc(-c4ccccc4OCCN)o3)n2)cc1 [IA-213, 4-[5-amino-6-[5-[2-(2-aminoethoxy)phenyl]-1,3,4-oxadiazol-2-yl]pyrazin-2-yl]-N,N-dimethyl-benzamide]
10 to 100 nM	CC(C)S(=O)(=O)c1ccc(-c2cnc(N)c(-c3nnc(CCN)o3)n2)cc1 [IA-214, 3-[5-(2-aminoethyl)-1,3,4-oxadiazol-2-yl]-5-(4-isopropylsulfonylphenyl)pyrazin-2-amine]
≤ 10 nM	CN(C)C(=O)c1ccc(-c2cnc(N)c(-c3nnc(-c4ccccc4O)o3)n2)cc1 [IA-215, 4-[5-amino-6-[5-(2-hydroxyphenyl)-1,3,4-oxadiazol-2-yl]pyrazin-2-yl]-N,N-dimethyl-benzamide]
100 to 5000 nM	Nc1ncc(-c2cccc3cccnc23)nc1-c1nnc(-c2ccccc2)o1 [IA-216, 3-(5-phenyl-1,3,4-oxadiazol-2-yl)-5-(8-quinolyl)pyrazin-2-amine]
100 to 5000 nM	CC(C)S(=O)(=O)c1ccc(-c2cnc(N)c(-c3nnc(NC(=O)[C@@H]4CCCN4)o3)n2)cc1 [IA-217, (2S)—N-[5-[3-amino-6-(4-isopropylsulfonylphenyl)pyrazin-2-yl]-1,3,4-oxadiazol-2-yl]pyrrolidine-2-carboxamide]
10 to 100 nM	NC(=O)c1ccc(-c2cnc(N)c(-c3nnc(-c4ccccc4)o3)n2)cc1 [IA-218, 4-[5-amino-6-(5-phenyl-1,3,4-oxadiazol-2-yl)pyrazin-2-yl]benzamide]
100 to 5000 nM	CC(C)S(=O)(=O)c1ccc(-c2cnc(N)c(-c3nnc(NC(=O)C(C)(C)N)o3)n2)cc1 [IA-219, 2-amino-N-[5-[3-amino-6-(4-isopropylsulfonylphenyl)pyrazin-2-yl]-1,3,4-oxadiazol-2-yl]-2-methyl-propanamide]
≤ 10 nM	CC(C)S(=O)(=O)c1ccc(-c2cnc(N)c(-c3nnc(-c4cccc(CN)c4)o3)n2)cc1 [IA-220, 3-[5-[3-(aminomethyl)phenyl]-1,3,4-oxadiazol-2-yl]-5-(4-isopropylsulfonylphenyl)pyrazin-2-amine]
